The text below walks through data of ChEMBL document CHEMBL1156556, “Knowledge-based design of 7-azaindoles as selective B-Raf inhibitors” (Bioorg Med Chem Lett, 2008).

The source made the active and inactive calls. The rule behind the calls is not given here.

The target of assay [1] is Serine/threonine-protein kinase B-raf (Homo sapiens, UniProt P15056). The experiment in a line: Inhibition of B-Raf by fluorescence anisotropy binding assay. For orientation: In fluorescence polarisation assays a small probe gives low polarisation when free and higher when bound to something large.
Assay [2] addresses Insulin-like growth factor 1 receptor (Homo sapiens) (UniProt P08069). Description: Inhibition of IGF1R at 30 uM.
Assay [3] is described as follows: Selectivity for B-Raf over VEGFR2.
The target of assay [4] is Tyrosine-protein kinase SYK (Homo sapiens) (UniProt P43405). The experiment in a line: Inhibition of SYK at 30 uM.
A further assay concerns the target Cytochrome P450 2C9 (Homo sapiens, UniProt P11712). The experiment in a line: Inhibition of CYP2C9. In kind it is ADME.
The target in the next assay is Cytochrome P450 2D6 (Homo sapiens, UniProt P10635). Description: Inhibition of CYP2D6. Format: ADME.
Assay [5] has as its target Tyrosine-protein kinase BTK (Homo sapiens) (UniProt Q06187). The experiment in a line: Inhibition of BTK at 30 uM.
A short description of assay [6]: Selectivity for B-Raf over c-Met.
Assay [7] has as its target Mitogen-activated protein kinase 1 (Homo sapiens) (UniProt P28482). Description: Inhibition of ERK2 at 30 uM.
Assay [8] concerns the target Glycogen synthase kinase-3 beta (Homo sapiens) (UniProt P49841). The experiment in a line: Inhibition of GSK3b at 30 uM.
Assay [9] concerns the target T1, Inhibitor of nuclear factor kappa-B kinase subunit beta (Homo sapiens) (UniProt O14920).
T1 sequence (whole entry): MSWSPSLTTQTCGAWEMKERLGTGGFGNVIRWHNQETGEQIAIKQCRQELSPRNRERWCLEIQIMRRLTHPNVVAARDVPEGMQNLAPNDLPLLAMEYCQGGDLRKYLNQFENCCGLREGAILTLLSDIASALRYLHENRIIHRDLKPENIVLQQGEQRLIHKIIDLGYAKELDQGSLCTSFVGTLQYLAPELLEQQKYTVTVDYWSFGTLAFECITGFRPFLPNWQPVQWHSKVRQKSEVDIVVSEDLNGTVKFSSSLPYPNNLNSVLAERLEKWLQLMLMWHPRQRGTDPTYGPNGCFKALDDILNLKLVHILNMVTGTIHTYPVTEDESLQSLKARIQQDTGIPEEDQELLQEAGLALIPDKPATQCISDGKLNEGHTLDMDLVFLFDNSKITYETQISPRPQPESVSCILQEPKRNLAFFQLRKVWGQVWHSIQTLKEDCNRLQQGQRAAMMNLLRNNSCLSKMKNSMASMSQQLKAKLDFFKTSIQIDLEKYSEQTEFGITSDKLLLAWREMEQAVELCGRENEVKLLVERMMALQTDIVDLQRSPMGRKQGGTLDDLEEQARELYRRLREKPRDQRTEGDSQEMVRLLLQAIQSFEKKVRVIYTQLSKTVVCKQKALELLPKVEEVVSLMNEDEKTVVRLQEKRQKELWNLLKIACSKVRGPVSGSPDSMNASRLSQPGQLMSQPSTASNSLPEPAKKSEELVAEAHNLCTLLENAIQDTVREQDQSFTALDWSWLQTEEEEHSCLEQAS
The experiment in a line: Inhibition of IKK2 at 30 uM.

Assay [10] addresses Receptor tyrosine-protein kinase erbB-4 (Homo sapiens) (UniProt Q15303). Description: Inhibition of ERBB4 at 30 uM.
Assay [11] addresses RAC-alpha serine/threonine-protein kinase (Homo sapiens) (UniProt P31749). Description: Inhibition of AKT1 at 30 uM.
For assay [12], the target named is T2, Serine/threonine-protein kinase Sgk1 (Homo sapiens) (UniProt O00141).
T2 sequence (whole entry): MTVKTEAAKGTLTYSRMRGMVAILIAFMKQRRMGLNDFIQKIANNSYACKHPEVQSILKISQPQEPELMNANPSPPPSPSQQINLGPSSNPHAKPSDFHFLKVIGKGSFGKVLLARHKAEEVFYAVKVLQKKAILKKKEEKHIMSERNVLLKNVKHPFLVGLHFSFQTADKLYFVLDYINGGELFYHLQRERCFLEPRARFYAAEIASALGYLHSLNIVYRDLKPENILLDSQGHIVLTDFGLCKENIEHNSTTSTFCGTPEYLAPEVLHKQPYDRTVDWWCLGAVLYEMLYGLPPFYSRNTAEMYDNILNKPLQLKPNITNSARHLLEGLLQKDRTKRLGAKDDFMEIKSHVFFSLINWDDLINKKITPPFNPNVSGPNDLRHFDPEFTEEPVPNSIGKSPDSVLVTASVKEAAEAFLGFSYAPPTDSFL
Description: Inhibition of SGK1 at 30 uM.

Assay [13] has as its target Cyclin-dependent kinase 2 (Homo sapiens) (UniProt P24941). Description: Inhibition of CDK2 at 30 uM.
Assay [14] addresses T3, Tyrosine-protein kinase ZAP-70 (Homo sapiens) (UniProt P43403).
T3 sequence (whole entry): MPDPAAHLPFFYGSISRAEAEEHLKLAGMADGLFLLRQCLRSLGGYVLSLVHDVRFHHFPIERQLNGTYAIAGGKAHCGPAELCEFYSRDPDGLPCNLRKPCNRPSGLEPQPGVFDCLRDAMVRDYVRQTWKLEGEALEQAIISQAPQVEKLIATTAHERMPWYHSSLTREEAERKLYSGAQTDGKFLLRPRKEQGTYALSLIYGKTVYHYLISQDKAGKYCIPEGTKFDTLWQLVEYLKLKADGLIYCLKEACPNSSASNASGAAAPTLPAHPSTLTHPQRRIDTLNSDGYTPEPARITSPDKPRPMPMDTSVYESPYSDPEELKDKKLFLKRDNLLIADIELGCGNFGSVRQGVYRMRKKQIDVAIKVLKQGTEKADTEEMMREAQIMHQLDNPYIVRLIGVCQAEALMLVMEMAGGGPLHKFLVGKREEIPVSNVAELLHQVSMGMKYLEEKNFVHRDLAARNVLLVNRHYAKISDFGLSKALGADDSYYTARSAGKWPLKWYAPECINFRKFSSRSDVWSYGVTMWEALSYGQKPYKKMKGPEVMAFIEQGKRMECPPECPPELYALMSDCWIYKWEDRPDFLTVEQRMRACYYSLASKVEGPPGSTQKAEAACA
Description: Inhibition of ZAP70 at 30 uM.

Sequence of Serine/threonine-protein kinase B-raf (P15056 whole entry): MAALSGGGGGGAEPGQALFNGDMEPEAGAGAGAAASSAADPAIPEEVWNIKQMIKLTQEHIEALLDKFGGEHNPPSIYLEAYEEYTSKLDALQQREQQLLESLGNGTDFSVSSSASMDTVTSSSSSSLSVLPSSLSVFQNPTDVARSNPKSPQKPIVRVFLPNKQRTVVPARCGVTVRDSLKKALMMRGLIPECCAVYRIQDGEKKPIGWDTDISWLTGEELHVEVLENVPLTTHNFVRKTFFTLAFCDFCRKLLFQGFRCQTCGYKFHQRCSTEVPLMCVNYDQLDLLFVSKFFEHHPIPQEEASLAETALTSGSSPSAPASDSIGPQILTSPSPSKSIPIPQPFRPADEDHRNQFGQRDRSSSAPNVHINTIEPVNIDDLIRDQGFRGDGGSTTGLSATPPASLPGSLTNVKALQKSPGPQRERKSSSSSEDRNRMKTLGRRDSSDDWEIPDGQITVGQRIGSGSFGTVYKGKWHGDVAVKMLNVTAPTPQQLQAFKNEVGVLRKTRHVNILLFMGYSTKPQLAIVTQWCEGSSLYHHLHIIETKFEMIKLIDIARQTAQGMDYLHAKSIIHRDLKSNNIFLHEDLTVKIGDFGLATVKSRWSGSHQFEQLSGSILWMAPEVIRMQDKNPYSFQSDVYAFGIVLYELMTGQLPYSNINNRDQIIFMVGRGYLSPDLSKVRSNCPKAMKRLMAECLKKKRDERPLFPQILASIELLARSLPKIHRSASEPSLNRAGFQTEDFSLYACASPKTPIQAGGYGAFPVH
Sequence of Cytochrome P450 2C9 (P11712 whole entry): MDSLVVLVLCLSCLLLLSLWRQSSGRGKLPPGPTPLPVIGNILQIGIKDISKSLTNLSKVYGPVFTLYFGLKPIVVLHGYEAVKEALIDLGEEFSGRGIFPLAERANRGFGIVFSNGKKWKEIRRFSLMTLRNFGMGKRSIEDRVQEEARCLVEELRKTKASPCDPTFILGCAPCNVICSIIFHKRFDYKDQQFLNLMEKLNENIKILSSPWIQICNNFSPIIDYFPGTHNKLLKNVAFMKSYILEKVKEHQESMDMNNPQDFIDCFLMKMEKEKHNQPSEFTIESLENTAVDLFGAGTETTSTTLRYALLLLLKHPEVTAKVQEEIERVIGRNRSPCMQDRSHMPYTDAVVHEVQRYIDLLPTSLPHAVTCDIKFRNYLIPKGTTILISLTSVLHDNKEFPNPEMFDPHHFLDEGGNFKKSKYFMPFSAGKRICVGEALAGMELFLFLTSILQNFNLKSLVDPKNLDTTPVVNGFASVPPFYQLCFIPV
Sequence of Cytochrome P450 2D6 (P10635 whole entry): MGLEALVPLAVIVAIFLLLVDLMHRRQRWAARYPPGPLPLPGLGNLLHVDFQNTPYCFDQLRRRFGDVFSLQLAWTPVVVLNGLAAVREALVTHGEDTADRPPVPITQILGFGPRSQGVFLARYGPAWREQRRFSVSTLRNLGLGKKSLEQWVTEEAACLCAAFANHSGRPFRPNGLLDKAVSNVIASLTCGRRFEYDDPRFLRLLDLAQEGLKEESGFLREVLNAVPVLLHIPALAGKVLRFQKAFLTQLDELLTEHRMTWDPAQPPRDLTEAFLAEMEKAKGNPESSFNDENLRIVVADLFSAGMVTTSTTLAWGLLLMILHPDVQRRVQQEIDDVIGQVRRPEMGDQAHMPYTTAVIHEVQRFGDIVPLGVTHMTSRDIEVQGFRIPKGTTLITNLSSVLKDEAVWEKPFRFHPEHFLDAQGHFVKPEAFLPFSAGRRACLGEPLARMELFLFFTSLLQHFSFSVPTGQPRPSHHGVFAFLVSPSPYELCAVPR
Sequence of Glycogen synthase kinase-3 beta (Homo sapiens) (P49841 whole entry, looked up): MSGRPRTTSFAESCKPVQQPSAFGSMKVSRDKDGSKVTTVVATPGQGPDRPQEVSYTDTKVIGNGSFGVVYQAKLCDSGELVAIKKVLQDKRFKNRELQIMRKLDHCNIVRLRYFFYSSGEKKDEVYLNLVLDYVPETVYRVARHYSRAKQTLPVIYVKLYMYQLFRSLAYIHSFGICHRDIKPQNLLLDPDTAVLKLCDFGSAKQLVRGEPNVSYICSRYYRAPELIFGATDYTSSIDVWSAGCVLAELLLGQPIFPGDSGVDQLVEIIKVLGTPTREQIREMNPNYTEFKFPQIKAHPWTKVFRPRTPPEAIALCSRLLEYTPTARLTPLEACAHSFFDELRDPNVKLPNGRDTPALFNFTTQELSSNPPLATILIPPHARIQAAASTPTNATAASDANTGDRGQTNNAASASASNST
Sequence of Mitogen-activated protein kinase 1 (Homo sapiens) (P28482 whole entry): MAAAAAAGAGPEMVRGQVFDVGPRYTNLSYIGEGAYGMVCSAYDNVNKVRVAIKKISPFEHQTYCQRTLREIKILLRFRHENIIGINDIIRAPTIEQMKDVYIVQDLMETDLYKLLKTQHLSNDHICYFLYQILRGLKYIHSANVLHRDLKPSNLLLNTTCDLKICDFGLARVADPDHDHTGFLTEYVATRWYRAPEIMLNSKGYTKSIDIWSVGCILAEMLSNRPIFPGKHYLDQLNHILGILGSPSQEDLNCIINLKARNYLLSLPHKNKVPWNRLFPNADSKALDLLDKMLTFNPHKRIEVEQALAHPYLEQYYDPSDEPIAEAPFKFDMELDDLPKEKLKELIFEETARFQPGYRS
Sequence of Receptor tyrosine-protein kinase erbB-4 (Homo sapiens) (Q15303 whole entry): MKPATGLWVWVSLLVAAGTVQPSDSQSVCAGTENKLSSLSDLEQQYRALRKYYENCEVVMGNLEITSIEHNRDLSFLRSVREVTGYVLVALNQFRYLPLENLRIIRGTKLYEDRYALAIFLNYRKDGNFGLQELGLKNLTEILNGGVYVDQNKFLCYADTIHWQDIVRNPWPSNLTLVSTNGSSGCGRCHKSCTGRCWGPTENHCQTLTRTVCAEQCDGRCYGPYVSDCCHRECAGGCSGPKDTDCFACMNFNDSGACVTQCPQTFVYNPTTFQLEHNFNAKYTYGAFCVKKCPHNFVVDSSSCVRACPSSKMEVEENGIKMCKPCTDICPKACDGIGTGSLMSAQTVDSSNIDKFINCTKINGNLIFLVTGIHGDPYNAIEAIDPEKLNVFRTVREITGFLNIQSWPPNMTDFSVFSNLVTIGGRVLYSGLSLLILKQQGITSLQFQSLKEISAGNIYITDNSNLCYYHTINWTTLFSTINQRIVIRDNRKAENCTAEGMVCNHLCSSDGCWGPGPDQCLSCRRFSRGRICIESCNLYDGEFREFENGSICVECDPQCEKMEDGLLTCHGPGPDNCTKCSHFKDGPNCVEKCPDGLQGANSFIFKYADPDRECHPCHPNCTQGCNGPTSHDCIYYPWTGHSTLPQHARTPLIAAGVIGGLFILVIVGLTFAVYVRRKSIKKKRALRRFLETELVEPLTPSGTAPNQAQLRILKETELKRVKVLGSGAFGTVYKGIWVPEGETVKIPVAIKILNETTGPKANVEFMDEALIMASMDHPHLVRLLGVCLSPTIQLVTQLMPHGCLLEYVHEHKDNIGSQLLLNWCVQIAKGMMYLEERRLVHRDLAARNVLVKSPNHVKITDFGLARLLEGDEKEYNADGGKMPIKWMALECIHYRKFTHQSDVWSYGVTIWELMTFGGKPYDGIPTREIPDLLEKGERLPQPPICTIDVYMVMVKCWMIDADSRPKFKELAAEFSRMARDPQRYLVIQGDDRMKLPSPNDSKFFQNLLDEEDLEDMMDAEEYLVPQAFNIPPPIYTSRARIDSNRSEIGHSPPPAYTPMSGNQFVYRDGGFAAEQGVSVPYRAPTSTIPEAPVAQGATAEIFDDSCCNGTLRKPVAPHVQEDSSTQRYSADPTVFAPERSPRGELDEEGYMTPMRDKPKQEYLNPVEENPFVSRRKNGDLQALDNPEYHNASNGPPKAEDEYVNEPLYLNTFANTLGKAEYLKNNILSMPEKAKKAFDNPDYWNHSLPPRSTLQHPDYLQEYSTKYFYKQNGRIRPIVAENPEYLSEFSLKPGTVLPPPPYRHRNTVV
Sequence of Tyrosine-protein kinase BTK (Homo sapiens) (Q06187 whole entry): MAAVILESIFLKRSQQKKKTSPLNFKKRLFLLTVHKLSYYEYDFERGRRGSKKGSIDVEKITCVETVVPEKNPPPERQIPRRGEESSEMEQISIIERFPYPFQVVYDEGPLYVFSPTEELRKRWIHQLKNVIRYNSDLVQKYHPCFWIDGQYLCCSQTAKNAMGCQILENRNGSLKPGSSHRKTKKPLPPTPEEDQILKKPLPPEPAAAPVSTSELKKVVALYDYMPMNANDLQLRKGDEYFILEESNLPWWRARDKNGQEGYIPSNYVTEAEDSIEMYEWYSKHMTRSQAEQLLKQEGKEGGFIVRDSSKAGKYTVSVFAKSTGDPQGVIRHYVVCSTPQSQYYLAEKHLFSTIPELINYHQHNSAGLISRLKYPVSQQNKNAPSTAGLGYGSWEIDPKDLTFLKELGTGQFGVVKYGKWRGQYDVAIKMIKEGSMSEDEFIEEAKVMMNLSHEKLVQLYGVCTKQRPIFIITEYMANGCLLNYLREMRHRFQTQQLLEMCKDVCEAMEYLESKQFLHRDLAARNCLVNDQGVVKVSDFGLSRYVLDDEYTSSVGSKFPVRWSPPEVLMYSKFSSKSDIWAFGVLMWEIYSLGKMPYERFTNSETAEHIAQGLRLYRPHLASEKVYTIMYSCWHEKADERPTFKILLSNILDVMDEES
Sequence of RAC-alpha serine/threonine-protein kinase (Homo sapiens) (P31749 whole entry): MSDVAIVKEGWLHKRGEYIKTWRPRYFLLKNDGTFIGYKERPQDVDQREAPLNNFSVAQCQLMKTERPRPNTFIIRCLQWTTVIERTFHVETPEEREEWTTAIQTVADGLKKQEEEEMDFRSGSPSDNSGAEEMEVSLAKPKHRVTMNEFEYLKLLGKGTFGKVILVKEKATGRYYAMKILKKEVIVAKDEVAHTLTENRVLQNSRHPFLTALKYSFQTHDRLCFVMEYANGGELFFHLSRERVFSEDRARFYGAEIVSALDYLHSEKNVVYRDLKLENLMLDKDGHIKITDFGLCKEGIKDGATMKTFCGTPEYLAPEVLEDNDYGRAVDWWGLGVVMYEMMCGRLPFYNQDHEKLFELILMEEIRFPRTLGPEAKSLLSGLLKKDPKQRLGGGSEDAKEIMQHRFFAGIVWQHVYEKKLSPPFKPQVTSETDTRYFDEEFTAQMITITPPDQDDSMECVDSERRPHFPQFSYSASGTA

In assay [1], `CCn1cc(-c2ccnc3[nH]ccc23)c(-c2cccc(NC(=O)Nc3cc(C(F)(F)F)ccc3F)c2)n1` yielded an IC50 of 3.9 nM.
On the same count and under the same terms, with `CCOC(=O)c1cc2c(-c3cn(CC)nc3-c3cccc(NC(=O)Nc4ccccc4)c3)ccnc2[nH]1` the figure was 33.9 nM.
`CCn1cc(-c2ccnc3[nH]ccc23)c(-c2cccc(NC(=O)Nc3ccc(C(F)(F)F)cc3)c2)n1`: the result in assay [2], in [4], in assay [5], in assay [7], in [8] and in assay [9] was inactive. Moreover, the outcome in assay [10], in assay [11], in [12], in [13] and in [14] was inactive. Besides, the fold change (FC) in [3] and in assay [6] was 100 throughout. In addition, the IC50 against Cytochrome P450 2C9 was 1260 nM; against Cytochrome P450 2D6 it was 5010 nM.
`CCn1cc(-c2ccnc3[nH]ccc23)c(-c2cccc(NC(=O)Nc3cccc(OC)c3)c2)n1`: the IC50 in [1] is 2.1 nM; at Cytochrome P450 2C9, 316 nM; against Cytochrome P450 2D6 it was 200 nM.
Regarding `CCn1cc(-c2ccnc3[nH]ccc23)c(-c2cccc(NC(=O)Nc3ccc(Cl)c(C(F)(F)F)c3)c2)n1`, the IC50 in assay [1] came to 5.4 nM.
With `CCn1cc(-c2ccnc3[nH]cc(Br)c23)c(-c2cccc(NC(=O)Nc3ccccc3)c2)n1`, the 50% inhibitory concentration (IC50) in assay [1] worked out at 79.4 nM. This IC50 lies about 15-fold higher than the previous one.
In turn, `CCn1cc(-c2ccnc3[nH]c(C(=O)O)cc23)c(-c2cccc(NC(=O)Nc3ccccc3)c2)n1` gave an IC50 in assay [1] of 45.7 nM.
On the same count and under the same terms, with `CCn1cc(-c2ccnc3[nH]ccc23)c(-c2cccc(NC(=O)NC3CCCCC3)c2)n1` the figure was 41.7 nM; with `CCn1cc(-c2ccnc3[nH]ccc23)c(-c2cccc(NC(=O)Nc3c(F)cccc3F)c2)n1`, 25.7 nM.

By IC50 is commonly meant the concentration at which inhibition is half-maximal. A low value points to inhibition by little substance.
